Measurements: US11560420B2, “Method for producing antibodies using ovine B-cells and uses thereof” (Roche Diagnostics Operations, Inc., priority 2013, dated 2023)

Experiments:
sIgG+CD45R+ B-cells = test: IgG secretion by in vitro cultivated pools of sIgG+CD45R+ B-cells (sheep IgG ELISA of supernatants); assay type: cell-based; conditions: for number of IgG-containing wells compared with basal medium: basal medium supplemented with the factor
From the text: (§1) To exemplify the current invention PBMCs were isolated from sheep immunized with a KLH-conjugated hapten and underwent positive panning using the biotinylated hapten and magnetic streptavidin beads to enrich antigen-specific B-cells. Subsequently, B-cells were stained for both surface IgG (sIgG) and the B-cell marker CD45R or CD21. Pools of 50 cells (sIgG^+CD45R^+ or sIgG^+CD21^+) were sorted into 96-well plates using a BD FACS Aria cell sorter. Cells were cultivated in medium supplemented with different factors in order to identify a medium composition that promotes the proliferation of the B-cells as well as the differentiation to IgG secreting cells (i.e. plasma cells)
(§2) In all experiment the basal medium was supplemented with 10% FCS, SAC and sheep TSN. Cells were cultivated in the presence of EL4B5 feeder cells.
(§3) Pools of 50 cells/well of antigen-enriched sIgG^+CD45R^+ B-cells were cultivated in the different media in a 96-well plate in the presence of EL4B5 feeder cells. After one week of cultivation the sheep IgG concentration of the supernatants was analyzed using a sheep IgG ELISA. The results for IMDM as basal medium are presented in FIG. 1 and for DMEM and IMDM as basal medium in the following Table.
(§4) For a more detailed analysis 4 categories of wells were defined: Wells with no IgG producing cells (IgG concentration below limit of detection, i.e. <10 ng/ml), wells with low IgG concentrations (10-50 ng/ml), wells with an average IgG concentration (50-200 ng/ml) and wells with a high IgG concentration (200-400 ng/ml).
(§5) Suffolk-Merino sheep were immunized several times using a KLH-coupled hapten as immunogen (500 μg dose formulated in an adjuvant). Five days before isolation of B-cells sheep were boosted by a subcutaneous application of the immunogen (500 μg dose per animal formulated in an adjuvant). For isolation of B-cells approx. 150 ml EDTA-blood was taken from the animals and mixed with an equal volume of PBS. The diluted blood was loaded on Leucosep™ tubes (Greiner Bio-One, Frickenhausen, Germany) (20 ml per tube) and centrifuged for 15 min. at 800×g at room temperature. After centrifugation the PBMCs (peripheral blood mononuclear cells) were collected, washed with PBS and counted using a counting chamber.
Following washing with PBS the PBMCs were resuspended in FACS Buffer (PBS/1% BSA) at 5×10^7 cells/ml. For positive panning of antigen-specific B-cells, the cells were labeled by incubation with the biotinylated hapten (500 ng/ml) for 30 min. at 4° C. under gentle rotation. Subsequently cells were washed with PBS and resuspended in Labeling Buffer (PBS/2 mM EDTA) at 1×10^7 cells per 90 μl. Cells were incubated with magnetic streptavidin microbeads (Miltenyi Biotec, Bergisch-Gladbach, Germany) for 30 min. at 4° C. under gentle rotation (using 10 μl of the beads per 90 μl of cell suspension). After washing with PBS cells were resuspended in MACS Buffer (PBS/1% BSA/2 mM EDTA) at 2×10^8 cells/ml and loaded on MACS column (Miltenyi Biotec) equilibrated with MACS buffer. Following washing with MACS buffer the magnet was removed from the column and labeled, antigen-specific cells were eluted in MACS buffer.
For staining of B-cells the eluted cell fraction was washed with PBS and resuspended in FACS Buffer at 2×10^7 cells/ml. […]

sIgG+CD21+ B-cells = test: IgG secretion by in vitro cultivated pools of sIgG+CD21+ B-cells (sheep IgG ELISA of supernatants); assay type: cell-based
From the text: as §1, §2
as §3, with “sIgG^+CD21^+” for “sIgG^+CD45R^+”, “indicated medium” for “different media”, “2” for “1”
as §4, §5
Following washing with PBS the PBMCs were resuspended in FACS Buffer (PBS/1% BSA) at 5×10^7 cells/ml. For positive panning of antigen-specific B-cells, the cells were labeled by incubation with the biotinylated hapten (500 ng/ml) for 30 min. at 4° C. under gentle rotation. Subsequently cells were washed with PBS and resuspended in Labeling Buffer (PBS/2 mM EDTA) at 1×10^7 cells per 90 μl. […]

[1] = tested on: single sIgG+CD21+ B-cells; test: Sorting and cultivation of single sIgG+CD21+ B-cells, IgG concentration of supernatant by ELISA; assay type: cell-based, sheep; conditions: for % IgG positive wells: % of total wells
From the text: PBMCs were isolated from sheep immunized with a KLH-conjugated hapten, underwent positive panning for enrichment of antigen-specific B-cells and were stained for both sheep sIgG and CD21. Single cells were sorted in 96-well plates using a BD FACS Aria cell sorter. Cells were cultivated in IMDM supplemented with 10% FCS, SAC, sheep TSN and PMA. Cells were cultivated in the presence of EL4B5 feeder cells. After one week of cultivation, the IgG concentration of the supernatant of the cells was analyzed by ELISA.
This experiment was performed again. PBMCs were isolated from sheep immunized with another KLH-conjugated hapten, underwent positive panning for enrichment of antigen-specific B-cells and were stained for both sheep sIgG and CD21. Double-positive single cells were sorted in 96-well plates using a BD FACS Aria cell sorter. Cells were cultivated in IMDM supplemented with 10% FCS, SAC, sheep TSN and PMA in the presence of EL4B5 feeder cells.
In control experiments single cells were cultivated using the same cultivation conditions in the absence of PMA. After one week of cultivation, the IgG concentration of the cell supernatants was analyzed by ELISA. After one week of cultivation in the presence of PMA a total of approx. 16% of total wells contained IgG-secreting B-cell clones. In turn, 35% of the wells with IgG-secreting clones contained a low IgG concentration, 35% contained an average IgG concentration and 30% contained a high IgG concentration. In the absence of PMA none of the wells contained IgG-secreting B-cell clones.
Sheep PBMCs from immunized animals were isolated as described above. Antigen-specific B-cells were enriched by positive panning using the biotinylated antigen and magnetic streptavidin microbeads (Miltenyi Biotec) as described above. Cells were stained using a 1:50 diluted FITC-labeled anti-sheep IgG monoclonal antibody (Clone GT-34) (Sigma-Aldrich) in combination with a 1:10 diluted RPE-labeled anti-sheep CD21 mAb (AbD Serotec). Cells were incubated with the mAbs for 45 min. at 4° C. under gentle rotation. In control experiments aliquots of the cells were stained with the individual mAbs alone (single staining). Unstained cells served as negative control.
After washing with PBS cells were resuspended in FACS buffer and subjected to cell sorting using a FACS Aria I cell sorter (BD Biosciences). Single sIgG^+CD21^+ double positive B-cells were identified and sorted into a 96-well plate (one cell/well) containing 280 μl medium and γ-irradiated murine EL4B5 feeder cells (approx. 5×10^4 feeder cells/well seeded 24 hours before cell sorting into the plates).
The medium for cultivation of single ovine B-cells was IMDM (Gibco) was supplemented with 10% FCS (Hyclone), L-Penicillin-Streptomycin-Glutamine (1×) (Gibco), 55 μM 2-Mercaptoethanol (Gibco), 0.025% Pluronic F-68 (Gibco), sheep TSN (1:20 dilution), SAC (1:10,000 dilution) (Calbiochem) and 1 μg/ml PMA (Sigma-Aldrich).
B-cells were incubated for 7 to 10 days in the medium at 37° C./5% CO2 in a humidified atmosphere. Subsequently the supernatant of the cells was harvested and the IgG concentration was determined by ELISA as described below
A biotin-conjugated monoclonal anti-sheep IgG antibody (cat. #213-062-177, Dianova, Hamburg, Germany) was immobilized on a streptavidin coated 96-well plate (MicroCoat, Bernried, Germany). The mAb (100 μl/well) was used at a concentration of 300 ng/ml in PBS/1% RPLA4 (bovine plasma albumin) (Roche Diagnostics GmbH, Mannheim, Germany) and wells were incubated for 1 hour at room temperature (RT) with the diluted mAb. After washing with Wash Buffer (0.9% NaCl/0.05% Tween) the supernatants of the in vitro cultivated B-cells or serial dilutions of purified polyclonal sheep IgG (Roche) were added to the plates and incubated for 1 h at RT. After washing with Wash Buffer wells were incubated with a donkey anti-sheep IgG (H+L) antibody (1:15,000 dilution in PBS/1% RPLA4) labeled with horseradish peroxidase (Dianova, cat. #713-035-147). […]

[2] = tested on: single sIgG+CD21+ B-cells; test: Antigen-specificity of IgG secreted by single-cell B-cell clones (antigen-specific ELISA); assay type: cell-based, sheep; conditions: for % wells with antigen-specific IgG: % of IgG-secreting clones
Protocol: The specificity of the secreted antibodies was analyzed using an antigen-specific ELISA (data not shown).
Additionally, the specificity of the secreted antibodies was analyzed using an antigen-specific ELISA (data not shown).
Biotin-conjugated antigens were immobilized on a streptavidin coated 96-well plate (MicroCoat, Bernried, Germany). The biotinylated antigens (100 μl/well) were used at a concentration of 100-300 ng/ml in PBS/1% RPLA4 (bovine plasma albumin) (Roche Diagnostics GmbH, Mannheim, Germany) and wells were incubated with the diluted antigens for 1 hour at room temperature (RT). After washing with Wash Buffer (0.9% NaCl/0.05% Tween) the supernatants of the in vitro cultivated B-cells or serial dilutions of purified polyclonal sheep IgG (Roche) were added to the plates and incubated for 1 hour at RT. After washing with Wash Buffer wells were incubated with a donkey anti-sheep IgG (H+L) antibody (1:15,000 dilution in PBS/1% RPLA4) labeled with horseradish peroxidase (Dianova, cat. #713-035-147). After incubation for 1 hour at RT the plates were washed with Wash Buffer and signals were detected using ABTS solution (Roche Diagnostics GmbH, Mannheim, Germany) as substrate.

[3] = first experiment, % of wells with IgG-secreting clones
[4] = second experiment, listed as with PMA
[5] = second experiment, % of wells with IgG-secreting clones
[6] = second experiment, % of wells with IgG-secreting clones, listed as with PMA

IL-6: human IL-6 (Roche Diagnostics GmbH), 50 ng/ml added to the basal medium
number of IgG-containing wells compared with basal medium (sIgG+CD45R+ B-cells): increase

CCCCCCCCCCCCCC(=O)O[C@@H]1[C@@H](C)[C@@]2(O)[C@@H](C=C(CO)C[C@]3(O)C(=O)C(C)=C[C@@H]23)[C@@H]2C(C)(C)[C@]12OC(C)=O [PMA, Phorbol 12-Myristate-13-Acetate]
wells containing significant concentrations of IgG (>50 ng/ml) (sIgG+CD45R+ B-cells; DMEM basal medium (10% FCS, SAC, sheep TSN)): 64% | wells with an average IgG concentration (50-200 ng/ml) (sIgG+CD45R+ B-cells; IMDM as basal medium): 100% | wells containing significant concentrations of IgG (>50 ng/ml) (sIgG+CD45R+ B-cells; IMDM basal medium (10% FCS, SAC, sheep TSN)): 100% | wells with a high IgG concentration (200-400 ng/ml) (sIgG+CD21+ B-cells; IMDM as basal medium): approx. 50% | wells with an average IgG concentration (50-200 ng/ml) (sIgG+CD21+ B-cells; IMDM as basal medium): approx. 40% | wells containing significant levels of IgG (>50 ng/ml) (sIgG+CD21+ B-cells; addition to the basal medium): approx. 90% | wells with IgG-secreting clones containing a high IgG concentration (200-400 ng/ml) [1, 3]: 14% | wells with IgG-secreting clones containing a low IgG concentration (10-50 ng/ml) [1, 3]: 62% | wells with IgG-secreting clones containing an average IgG concentration (50-200 ng/ml) [1, 3]: 24% | total wells containing IgG-secreting B-cell clones ([1]; first experiment, single cells, IMDM with 10% FCS, SAC, sheep TSN and PMA, EL4B5 feeder cells, one week): 33% | wells with high IgG conc. (number) ([1]; second experiment): 20 | wells with low IgG conc. (number) ([1]; second experiment): 23 | wells with medium IgG conc. (number) ([1]; second experiment): 23 | No. IgG positive wells ([1]; second experiment (another KLH-conjugated hapten), single cells, one week): 66 | % IgG positive wells ([1]; second experiment): approx. 16% | % IgG positive wells [1, 4]: 15.7% | wells with high IgG conc. (%) [1, 5]: 30% | wells with low IgG conc. (%) [1, 5]: 35% | wells with medium IgG conc. (%) [1, 5]: 35% | wells with high IgG conc. (%) [1, 6]: 30.3% | wells with low IgG conc. (%) [1, 6]: 34.8% | wells with medium IgG conc. (%) [1, 6]: 34.8% | IgG-secreting clones producing antigen-specific antibodies ([2]; first experiment, % of total IgG-secreting clones): 38% | No. wells with antigen-specific IgG ([2]; second experiment): 19 | % wells with antigen-specific IgG ([2]; second experiment): 29% | % wells with antigen-specific IgG [2, 4]: 28.8%

B1: IL-4: human IL-4 (Peprotech), 10 ng/ml added to the basal medium (protein, UniProt P05112 25-153, looked up)
Interleukin-4: HKCDITLQEIIKTLNSLTEQKTLCTELTVTDIFAASKNTTEKETFCRAATVLRQFYSHHEKDTRCLGATAQQFHRHKQLIRFLKRLDRNLWGLAGLNSCPVKEANQSTLENFLERLKTIMREKYSKCSS
number of IgG-containing wells compared with basal medium (sIgG+CD45R+ B-cells): increase | number of IgG-containing wells compared with basal medium (sIgG+CD21+ B-cells; basal medium supplemented with the factor): increase
